Reference: patent US3996344A, “Phenethylamine antigenic conjugates, their preparation, antibodies and use” (Biological Developments, Inc., priority 1974, dated 1976)

System: antiserum (antibody raised in rabbits to the antigen of Example I, N-TFA-p-aminoamphetamine coupled to BSA)
Assay: Radioimmune assay for amphetamine: competitive inhibition of 3H-d-amphetamine binding to, and cross-reactivity of, antiserum raised to the antigen of Example I
Settings: for Percent Cross-Reactivity: method of Abraham, relative quantity that produces 50% inhibition x 100, d-amphetamine = 100; for Percent Inhibition of Binding 3H-d-amphetamine: 3H-d-amphetamine 137 picograms, 2 hours, 4° C

Compound | Percent Cross-Reactivity [%] | also measured
C[C@@H](N)Cc1ccccc1 [1-amphetamine] | 1.45 | 
C[C@H](N)Cc1ccccc1 [d-amphetamine] | 100 | Percent Inhibition of Binding 3H-d-amphetamine (250 picograms of unlabeled amphetamine): 12%; Percent Inhibition of Binding 3H-d-amphetamine (500 picograms of unlabeled amphetamine): 22%; Percent Inhibition of Binding 3H-d-amphetamine (1,000 picograms of unlabeled amphetamine): 33.5%; Percent Inhibition of Binding 3H-d-amphetamine (10,000 picograms of unlabeled amphetamine): 83.0%
CNCC(O)c1ccc(O)c(OC)c1 (stereo not shown) [metanephrine] | < 0.0125 | 
CN[C@@H](C)Cc1ccccc1 [methadrine] | 0.45 | 
COc1cc(C(O)CN)ccc1O (stereo not shown) [normetanephrine] | < 0.0125 | 
NCCc1ccc(O)cc1 [tyramine] | 3.4 | 
